# Reference: patent publication US9181266B2, “2-piperidin-1-yl-acetamide compounds for use as tankyrase inhibitors” (NOVARTIS AG, priority 2011, dated 2015)
# Values joined by “and” are separate entries in the source; they are usually repeats but may differ in a detail not shown here. Identical values can stand only once. Like-named read-outs stand apart in the source and are kept apart here.
# Tests used:
# Human PARP1 = Human PARP1 (Homo sapiens (Human), UniProt P09874); assay: PARP1 autoparsylation assay (LC/MS detection of nicotinamide); format: biochemical; details: 20 nM enzyme, 250 μM β-NAD+, 60 min
# Chain of Human PARP1 (P09874 whole entry): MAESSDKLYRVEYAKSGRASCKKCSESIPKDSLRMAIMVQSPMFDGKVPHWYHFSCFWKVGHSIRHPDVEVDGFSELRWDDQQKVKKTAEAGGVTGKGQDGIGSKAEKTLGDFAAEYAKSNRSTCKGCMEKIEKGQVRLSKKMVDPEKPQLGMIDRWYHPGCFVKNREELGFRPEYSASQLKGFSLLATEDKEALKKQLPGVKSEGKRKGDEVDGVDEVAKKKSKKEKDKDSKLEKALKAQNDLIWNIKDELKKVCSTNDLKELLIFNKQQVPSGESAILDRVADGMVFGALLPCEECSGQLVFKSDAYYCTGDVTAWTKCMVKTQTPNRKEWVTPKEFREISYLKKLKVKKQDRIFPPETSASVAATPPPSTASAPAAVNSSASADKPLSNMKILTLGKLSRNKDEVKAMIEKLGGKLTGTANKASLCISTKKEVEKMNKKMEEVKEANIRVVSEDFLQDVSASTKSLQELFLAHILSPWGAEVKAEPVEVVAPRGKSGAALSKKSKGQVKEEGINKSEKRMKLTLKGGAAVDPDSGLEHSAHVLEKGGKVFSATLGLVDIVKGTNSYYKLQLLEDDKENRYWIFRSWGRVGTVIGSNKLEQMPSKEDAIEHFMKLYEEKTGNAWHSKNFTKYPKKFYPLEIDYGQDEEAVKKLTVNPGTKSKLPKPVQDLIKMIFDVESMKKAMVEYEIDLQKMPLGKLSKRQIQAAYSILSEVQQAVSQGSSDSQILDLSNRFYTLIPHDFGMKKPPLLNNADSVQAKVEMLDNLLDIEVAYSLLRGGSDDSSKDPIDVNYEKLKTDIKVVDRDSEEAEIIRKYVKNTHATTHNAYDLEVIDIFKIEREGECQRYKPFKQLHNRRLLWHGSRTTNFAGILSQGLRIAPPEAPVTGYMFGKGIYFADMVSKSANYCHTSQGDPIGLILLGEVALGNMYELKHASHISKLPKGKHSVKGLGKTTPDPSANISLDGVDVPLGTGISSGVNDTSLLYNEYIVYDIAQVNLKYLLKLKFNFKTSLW
# Procedure: (§1) The autoparsylation activity of the TNKS 1/2 or PARP1/2 enzymes was measured by the liquid chromatography-mass spectrometry (LC/MS) detection of nicotinamide as readout. Compound activity in inhibiting the TNKS and PARP autoparsylation was evaluated by IC50 measurements.
# [1] = target: human tankyrase 1 PARP catalytic domain, TNKS1P (Homo sapiens (Human), UniProt O95271); assay: TNKS1 autoparsylation assay (LC/MS detection of nicotinamide); details: read-out: TNKS1 AP IC50, 20 nM enzyme, 250 μM β-NAD+, 60 min
# Chain of human tankyrase 1 PARP catalytic domain, TNKS1P (O95271 1112-1317): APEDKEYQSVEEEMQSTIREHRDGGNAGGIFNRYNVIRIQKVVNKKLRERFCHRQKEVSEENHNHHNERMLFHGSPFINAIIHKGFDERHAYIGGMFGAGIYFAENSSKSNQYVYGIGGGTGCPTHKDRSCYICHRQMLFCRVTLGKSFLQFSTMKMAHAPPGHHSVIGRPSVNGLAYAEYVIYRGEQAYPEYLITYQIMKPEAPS
# [2] = test system: Wnt ligand-induced signaling in HEK293 cells; assay: Wnt-responsive Super-TOpFlash (STF) luciferase reporter gene assay; format: cell-based; details: Homo sapiens, Wnt3A condition medium
# Procedure: Cellular Reporter Gene Assay to Determine Compound Inhibition of Wnt Signaling Activity
# Compound activity in inhibiting Wnt ligand-induced signaling was measured using a Wnt-responsive Super-TOpFlash (STF) luciferase reporter gene assay in HEK293 cells. On day 1 of the assay, cells were plated at a density of 8000 cells per well of 384-well plate in 25 μl medium containing 5% fetal bovine serum (FBS). On the second day, […] condition medium (CM) produced from mouse L cells was added to the cells to induce Wnt signaling, followed by addition of 5 μL of compounds each well in 10-point serial dilution. On the third day, the luciferase activity was measured by the Bright-Glo™ Luciferase Assay System following manufacture's protocol (Promega, E2620). The Inhibition was calculated as: (Maximum Wnt-induced signaling−Sample)/(Maximum Wnt-induced signaling−Background)*100. “Maximum Wnt-induced signaling” is the STF signal level induced by 20% Wnt3A CM without compound; and “Background” is the STF signal level without the addition of Wnt3A CM or compound.
# [3] = test system: Non-small lung cancer ABC-1 cells; assay: Cellular proliferation assay (CellTiter-Glo); format: cell-based; details: Homo sapiens, read-out: ABC-1 IC50
# Procedure: Cellular Proliferation Assay to Determine Compound Inhibition of Cancer Cell Growth
# Viable cells were measured after 3 days of compound treatment using the CellTiter-Glo assay (Promega, G7570). Assay was performed following the manufacture protocol.
# [4] = target: tankyrase 2 protein PARP domain, TNKS2P (Homo sapiens (Human), UniProt Q9H2K2); assay: TNKS2 autoparsylation assay (LC/MS detection of nicotinamide); details: read-out: TNKS2 AP IC50, 20 nM enzyme, 250 μM β-NAD+, 60 min
# Chain of tankyrase 2 protein PARP domain, TNKS2P (Q9H2K2 959-1164): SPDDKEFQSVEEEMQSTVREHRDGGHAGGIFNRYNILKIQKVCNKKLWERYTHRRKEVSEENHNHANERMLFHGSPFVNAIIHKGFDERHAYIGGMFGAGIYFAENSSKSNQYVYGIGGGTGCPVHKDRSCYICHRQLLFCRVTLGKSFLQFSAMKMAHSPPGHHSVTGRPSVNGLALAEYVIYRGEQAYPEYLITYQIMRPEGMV
# [5] = test system: Axin2 protein in SW480 cells; assay: Cellular ELISA assay of Axin2 protein stabilization; format: cell-based; details: Homo sapiens, 24 hrs, read-out: Axin AC50
# Procedure: Cellular ELISA Assay to Determine Compound Effect on Stabilizing the Axin2 Protein Compound activity in stabilizing the Axin2 protein was measured by Sandwich Enzyme-Linked Immuosorbent (ELISA) assay in the colorectal cell line SW480. 30,000 SW480 cells were seeded per well in 96-well plate and incubated overnight prior to compound treatment. […] Cells were then washed with 100 μL of cold Phosphate Buffer Saline (PBS), and lysed in 125 μl of cold 1× lysis buffer (Cell Signaling Technology, 9803) supplemented with Protease inhibitor (Roche, 11836170) and Phosphatase inhibitors (Sigma, P2850, P5726). For the ELISA assay, anti Axin-2 capture antibody (Strategic Diagnostics) antibody was diluted to a concentration of 1 μg/ml (1:1000) in Carbonate Coating buffer, pH 9.2 (Sigma, C3041-50CAP). […], of the diluted anti Axin-2 capture antibody per well was then used to coat the 96-well ELISA plate (Thermo Electron Corp., MicroLite 1 flat bottom plate #7571) overnight at 4° C. […] After blocking, plates were then washed three times with 300 μl/well of wash solution. 100 μL of prepared SW480 cell lysate was then added to each well and incubated at room temperature for 2 hours while shaking gently. After washing, 100 μL of Biotinylated anti-Axin2 antibody (CST, 2151) was added to each well and incubated room temperature for 2 hours. 100 μL of Streptavidin-HRP (R&D systems, DY998) diluted 1:200 in 1% BSA/PBS was then added in each well and incubate for 30 mins at R/T in the dark.
# PARP2 = PARP2 (Mus musculus (Mouse), UniProt O88554); assay: PARP2 autoparsylation assay (LC/MS detection of nicotinamide); format: biochemical; details: 20 nM enzyme, 250 μM β-NAD+, 60 min
# Chain of PARP2 (O88554 whole entry): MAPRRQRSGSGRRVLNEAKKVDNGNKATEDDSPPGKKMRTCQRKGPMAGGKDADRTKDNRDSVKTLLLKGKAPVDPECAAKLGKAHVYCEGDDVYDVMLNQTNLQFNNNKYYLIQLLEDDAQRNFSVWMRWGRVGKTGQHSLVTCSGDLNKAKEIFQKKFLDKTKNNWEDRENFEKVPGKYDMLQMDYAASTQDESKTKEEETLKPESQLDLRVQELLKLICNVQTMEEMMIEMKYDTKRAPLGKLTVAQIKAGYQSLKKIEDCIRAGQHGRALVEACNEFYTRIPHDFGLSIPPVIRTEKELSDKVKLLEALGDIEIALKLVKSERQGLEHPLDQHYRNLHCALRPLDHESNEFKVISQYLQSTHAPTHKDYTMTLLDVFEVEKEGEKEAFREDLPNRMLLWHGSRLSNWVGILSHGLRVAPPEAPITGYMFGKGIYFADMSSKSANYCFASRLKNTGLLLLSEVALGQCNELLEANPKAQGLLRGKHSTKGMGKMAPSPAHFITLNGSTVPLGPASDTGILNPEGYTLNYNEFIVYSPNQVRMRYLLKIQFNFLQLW
# Procedure: as §1
# [6] = 72 h, ABC-1 cells, 3 days of compound treatment
SMILES,IC50 (Human PARP1),IC50 [1] [nM],"IC50 [3, 6] [nM]",IC50 [4] [nM],IC50 [2] [nM],AC50 [5] [nM],"IC50 ([3]; ABC-1, 72 h) [nM]",IC50 (PARP2) [nM]
"N#CCN(Cc1nc2c(c(=O)[nH]1)COCC2)C(=O)CN1CCC(C(=O)c2ccc(F)cc2)CC1 [Example 43, N-Cyanomethyl-2-[4-(4-fluoro-benzoyl)-piperidin-1-yl]-N-(4-oxo-3,5,7,8-tetrahydro-4H-pyrano[4,3-d]pyrimidin-2-ylmethyl)-acetamide]",> 19000 nM and 42900 nM,> 19000,–,–,362,–,–,–
"COc1ccc(C(=O)C2CCN(CC(=O)NCc3nc4c(c(=O)[nH]3)CCCC4)CC2)cc1 [Example 9, 2-(4-(4-Methoxybenzoyl)piperidin-1-yl)-N-((4-oxo-3,4,5,6,7,8-hexahydroquinazolin-2-yl)methyl)acetamide]",–,–,–,–,3 ± 3,9 ± 2,41,243 ± 66
"COc1ccc(C(=O)C2CCN(CC(=O)NCc3nc4c(c(=O)[nH]3)CCCCC4)CC2)cc1 [Example 6, 2-(4-(4-Methoxybenzoyl)piperidin-1-yl)-N-((4-oxo-4,5,6,7,8,9-hexahydro-3H-cyclohepta[d]pyrimidin-2-yl)methyl)acetamide]",–,575 ± 25,484,353 ± 8,56 ± 7,293 ± 8,–,–
"CC(c1nc2c(c(=O)[nH]1)COCC2)N(C)C(=O)CN1CCC(C(=O)c2ccc(F)cc2)CC1 (stereo not drawn) [Example 98, 2-(4-(4-Fluorobenzoyl)piperidin-1-yl)-N-methyl-N-(1-(4-oxo-4,5,7,8-tetrahydro-3H-pyrano[4,3-d]pyrimidin-2-yl)ethyl)acetamide]",–,4100 ± 500,258,723 ± 10,17 ± 8,72 ± 15,–,–
COCCN(Cc1nc2c(c(=O)[nH]1)COCC2)C(=O)CN1CCC(c2nnc(-c3ccccc3)o2)CC1 [Example 53],–,1130 ± 270,2160,142 ± 19,430 ± 50,2100 ± 200,–,–
"COc1ccc(C(=O)C2CCN(CC(=O)N(Cc3nc4c(c(=O)[nH]3)CCCC4)CC3CC3)CC2)cc1 [Example 8, N-(Cyclopropylmethyl)-2-(4-(4-methoxybenzoyl)piperidin-1-yl)-N-((4-oxo-3,4,5,6,7,8-hexahydroquinazolin-2-yl)methyl)acetamide]",–,–,–,–,3 ± 1,13 ± 3,22,9140 ± 210

# The remaining molecules from weak to strong by IC50 [1], led by results:
IC50 (Human PARP1),IC50 [1] [nM],"IC50 [3, 6] [nM]",IC50 [4] [nM],SMILES,IC50 [2] [nM],AC50 [5] [nM],"IC50 ([3]; ABC-1, 72 h) [nM]",IC50 (PARP2) [nM]
–,420 ± 110,96,85 ± 20,"COc1ccccc1C(=O)C1CCN(CC(=O)N(Cc2nc3c(c(=O)[nH]2)COCC3)CC(F)F)CC1 [Example 72, N-(2,2-Difluoro-ethyl)-2-[4-(2-methoxy-benzoyl)-piperidin-1-yl]-N-(4-oxo-3,5,7,8-tetrahydro-4H-pyrano[4,3-d]pyrimidin-2-ylmethyl)-acetamide]",8.7 ± 0.3,52 ± 28,–,–
7630 ± 320 nM,207 ± 17,–,43 ± 2,"O=C(CN1CCC(c2noc3cc(F)ccc23)CC1)NCc1nc2c(c(=O)[nH]1)COCC2 [Example 51, 2-(4-(6-Fluorobenzo[d]isoxazol-3-yl)piperidin-1-yl)-N-((4-oxo-4,5,7,8-tetrahydro-3H-pyrano[4,3-d]pyrimidin-2-yl)methyl)acetamide]",–,–,–,3090 ± 390
–,155 ± 15,590,38 ± 4,"O=C(c1cccc(OC(F)(F)F)c1)C1CCN(CC(=O)N(Cc2nc3c(c(=O)[nH]2)COCC3)CC(F)F)CC1 [Example 74, N-(2,2-Difluoro-ethyl)-N-(4-oxo-3,5,7,8-tetrahydro-4H-pyrano[4,3-d]pyrimidin-2-ylmethyl)-2-[4-(3-trifluoromethoxy-benzoyl)-piperidin-1-yl]-acetamide]",35.1 ± 3.4,508 ± 50,–,–
–,38 ± 3,32 ± 5,16 ± 5,"CCOc1ccc(C(=O)C2CCN(CC(=O)NCc3nc4c(c(=O)[nH]3)COCC4)CC2)cc1F [Example 95, 2-[4-(4-Ethoxy-3-fluoro-benzoyl)-piperidin-1-yl]-N-(4-oxo-3,5,7,8-tetrahydro-4H-pyrano[4,3-c]pyrimidin-2-ylmethyl)-acetamide]",6.6 ± 0.7,26 ± 7,–,–
